In PubChem BioAssay (NCI):
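96-well plates; 48 h exposure; 5 concentrations. Endpoints by linear interpolation between flanking doses. Not reached: highest tested concentration assigned. TGI marks complete inhibition of growth.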

How the values were obtained:
Assay in all cases: inhibition of tumour cell growth, NCI panel, 48 h
OVCAR-3 ovarian = test system: OVCAR-3 ovarian
T-47D breast = test system: T-47D breast
BT-549 breast = test system: BT-549 breast
NCI-H226 lung = test system: NCI-H226 lung
OVCAR-8 ovarian = test system: OVCAR-8 ovarian
COLO 205 colon = test system: COLO 205 colon
HCT-15 colon = test system: HCT-15 colon
HOP-92 NSCLC = test system: HOP-92 NSCLC
SW-620 colon = test system: SW-620 colon
DU-145 prostate = test system: DU-145 prostate
SK-OV-3 ovarian = test system: SK-OV-3 ovarian
MDA-MB-231 breast = test system: MDA-MB-231 breast
NCI-H460 lung = test system: NCI-H460 lung
SK-MEL-28 melanoma = test system: SK-MEL-28 melanoma
UO-31 renal = test system: UO-31 renal
K-562 leukemia = test system: K-562 leukemia
RPMI-8226 leukemia = test system: RPMI-8226 leukemia
786-0 renal = test system: 786-0 renal
KM12 colon = test system: KM12 colon
MDA-N = test system: MDA-N
UACC-62 melanoma = test system: UACC-62 melanoma
HCT-116 colon = test system: HCT-116 colon
RXF 393 renal = test system: RXF 393 renal
SK-MEL-5 melanoma = test system: SK-MEL-5 melanoma
MCF7 breast = test system: MCF7 breast
MDA-MB-435 = test system: MDA-MB-435
SF-295 CNS = test system: SF-295 CNS
IGROV1 ovarian = test system: IGROV1 ovarian
HL-60(TB) leukemia = test system: HL-60(TB) leukemia
CCRF-CEM leukemia = test system: CCRF-CEM leukemia
LOX IMVI melanoma = test system: LOX IMVI melanoma
CAKI-1 renal = test system: CAKI-1 renal
HOP-62 NSCLC = test system: HOP-62 NSCLC
NCI/ADR-RES ovarian = test system: NCI/ADR-RES ovarian
OVCAR-4 ovarian = test system: OVCAR-4 ovarian
NCI-H23 lung = test system: NCI-H23 lung
A549 NSCLC = test system: A549 NSCLC
MOLT-4 leukemia = test system: MOLT-4 leukemia
SF-268 CNS = test system: SF-268 CNS
HT29 colon = test system: HT29 colon
SK-MEL-2 melanoma = test system: SK-MEL-2 melanoma
PC-3 prostate = test system: PC-3 prostate
U251 CNS = test system: U251 CNS
MALME-3M melanoma = test system: MALME-3M melanoma
SR leukemia = test system: SR leukemia
HCC-2998 colon = test system: HCC-2998 colon
HS 578T breast = test system: HS 578T breast
A498 renal = test system: A498 renal
UACC-257 melanoma = test system: UACC-257 melanoma
SNB-19 CNS = test system: SNB-19 CNS
SN12C renal = test system: SN12C renal
NCI-H522 lung = test system: NCI-H522 lung
ACHN renal = test system: ACHN renal
M14 melanoma = test system: M14 melanoma
EKVX NSCLC = test system: EKVX NSCLC
OVCAR-5 ovarian = test system: OVCAR-5 ovarian
SF-539 CNS = test system: SF-539 CNS
TK-10 renal = test system: TK-10 renal
SNB-75 CNS = test system: SNB-75 CNS

## CCOC(=O)C1(O)C(=O)C2=C3C(=O)OC(C4OC(=O)c5c(c(O)c(O)c(O)c5C31)-c1c(cc(O)c(O)c1O)C(=O)OC1COC(=O)c3cc(O)c(O)c(O)c3-c3c(cc(O)c(O)c3O)C(=O)OC14)[C@@H]2O (stereo not given in full)
OVCAR-3 ovarian
  TGI: 85.4 µM
T-47D breast
  TGI: > 100 µM
BT-549 breast
  TGI: 61.5 µM
NCI-H226 lung
  TGI: 48.6 µM
OVCAR-8 ovarian
  TGI: 39.5 µM
COLO 205 colon
  TGI: 35.4 µM
HCT-15 colon
  TGI: 40.8 µM
HOP-92 NSCLC
  TGI: 86.5 µM
SW-620 colon
  TGI: 54.5 µM
DU-145 prostate
  TGI: > 100 µM
SK-OV-3 ovarian
  TGI: > 100 µM
MDA-MB-231 breast
  TGI: 36.1 µM
NCI-H460 lung
  TGI: > 100 µM
SK-MEL-28 melanoma
  TGI: > 100 µM
UO-31 renal
  TGI: > 100 µM
K-562 leukemia
  TGI: 56.9 µM
RPMI-8226 leukemia
  TGI: 85 µM
786-0 renal
  TGI: 39.4 µM
KM12 colon
  TGI: > 100 µM
MDA-N
  TGI: 37.8 µM
UACC-62 melanoma
  TGI: 43.1 µM
HCT-116 colon
  TGI: 30.8 µM
RXF 393 renal
  TGI: 36.8 µM
SK-MEL-5 melanoma
  TGI: 27.8 µM
MCF7 breast
  TGI: 40.1 µM
MDA-MB-435
  TGI: 33.4 µM
SF-295 CNS
  TGI: 43 µM
IGROV1 ovarian
  TGI: 79.5 µM
HL-60(TB) leukemia
  TGI: 72.7 µM
CCRF-CEM leukemia
  TGI: 52.6 µM
LOX IMVI melanoma
  TGI: 39.3 µM
CAKI-1 renal
  TGI: 25.9 µM
HOP-62 NSCLC
  TGI: > 100 µM
NCI/ADR-RES ovarian
  TGI: > 100 µM
OVCAR-4 ovarian
  TGI: 45.1 µM
NCI-H23 lung
  TGI: 39.5 µM
A549 NSCLC
  TGI: 44.4 µM
MOLT-4 leukemia
  TGI: 57.2 µM
SF-268 CNS
  TGI: 52.9 µM
HT29 colon
  TGI: 51.3 µM
SK-MEL-2 melanoma
  TGI: 94.7 µM
PC-3 prostate
  TGI: > 100 µM
U251 CNS
  TGI: 44.2 µM
MALME-3M melanoma
  TGI: 95.8 µM
SR leukemia
  TGI: > 100 µM
HCC-2998 colon
  TGI: 95.4 µM
HS 578T breast
  TGI: > 100 µM
A498 renal
  TGI: > 100 µM
UACC-257 melanoma
  TGI: > 100 µM
SNB-19 CNS
  TGI: > 100 µM
SN12C renal
  TGI: 35.4 µM
NCI-H522 lung
  TGI: 53.6 µM
ACHN renal
  TGI: 35.2 µM
M14 melanoma
  TGI: 67.6 µM
EKVX NSCLC
  TGI: 38.4 µM
OVCAR-5 ovarian
  TGI: 35.3 µM

## CC1(C)OC2C(CO)OC(n3cnc(N)nc3=O)C2O1 (stereo not given)
OVCAR-3 ovarian
  TGI: > 100 µM
T-47D breast
  TGI: > 100 µM
BT-549 breast
  TGI: > 100 µM
NCI-H226 lung
  TGI: > 100 µM
OVCAR-8 ovarian
  TGI: > 100 µM
SF-539 CNS
  TGI: > 100 µM
COLO 205 colon
  TGI: > 100 µM
HCT-15 colon
  TGI: > 100 µM
HOP-92 NSCLC
  TGI: > 100 µM
SW-620 colon
  TGI: > 100 µM
DU-145 prostate
  TGI: > 100 µM
SK-OV-3 ovarian
  TGI: > 100 µM
MDA-MB-231 breast
  TGI: > 100 µM
NCI-H460 lung
  TGI: > 100 µM
SK-MEL-28 melanoma
  TGI: > 100 µM
UO-31 renal
  TGI: > 100 µM
K-562 leukemia
  TGI: > 100 µM
RPMI-8226 leukemia
  TGI: > 100 µM
786-0 renal
  TGI: > 100 µM
MDA-N
  TGI: > 100 µM
TK-10 renal
  TGI: > 100 µM
UACC-62 melanoma
  TGI: > 100 µM
HCT-116 colon
  TGI: > 100 µM
RXF 393 renal
  TGI: > 100 µM
SK-MEL-5 melanoma
  TGI: > 100 µM
MCF7 breast
  TGI: > 100 µM
MDA-MB-435
  TGI: > 100 µM
SF-295 CNS
  TGI: > 100 µM
IGROV1 ovarian
  TGI: > 100 µM
HL-60(TB) leukemia
  TGI: > 100 µM
CCRF-CEM leukemia
  TGI: > 100 µM
LOX IMVI melanoma
  TGI: > 100 µM
CAKI-1 renal
  TGI: > 100 µM
HOP-62 NSCLC
  TGI: > 100 µM
NCI/ADR-RES ovarian
  TGI: > 100 µM
NCI-H23 lung
  TGI: > 100 µM
A549 NSCLC
  TGI: > 100 µM
MOLT-4 leukemia
  TGI: > 100 µM
SF-268 CNS
  TGI: > 100 µM
SK-MEL-2 melanoma
  TGI: > 100 µM
PC-3 prostate
  TGI: > 100 µM
U251 CNS
  TGI: > 100 µM
SR leukemia
  TGI: > 100 µM
HCC-2998 colon
  TGI: > 100 µM
HS 578T breast
  TGI: > 100 µM
A498 renal
  TGI: > 100 µM
UACC-257 melanoma
  TGI: > 100 µM
SNB-19 CNS
  TGI: > 100 µM
SN12C renal
  TGI: > 100 µM
NCI-H522 lung
  TGI: > 100 µM
ACHN renal
  TGI: > 100 µM
M14 melanoma
  TGI: > 100 µM
EKVX NSCLC
  TGI: > 100 µM
OVCAR-5 ovarian
  TGI: > 100 µM

## CSc1ncc2c(n1)-c1ccccc1OC2N1CCCCC1 (stereo not given)
OVCAR-3 ovarian
  TGI: > 100 µM
T-47D breast
  TGI: 68.2 µM
BT-549 breast
  TGI: 86.2 µM
NCI-H226 lung
  TGI: > 100 µM
OVCAR-8 ovarian
  TGI: > 100 µM
SF-539 CNS
  TGI: > 100 µM
COLO 205 colon
  TGI: > 100 µM
HCT-15 colon
  TGI: 84.5 µM
SNB-75 CNS
  TGI: > 100 µM
HOP-92 NSCLC
  TGI: 84.2 µM
SW-620 colon
  TGI: > 100 µM
DU-145 prostate
  TGI: > 100 µM
SK-OV-3 ovarian
  TGI: > 100 µM
MDA-MB-231 breast
  TGI: > 100 µM
NCI-H460 lung
  TGI: > 100 µM
UO-31 renal
  TGI: > 100 µM
K-562 leukemia
  TGI: > 100 µM
RPMI-8226 leukemia
  TGI: 65.9 µM
786-0 renal
  TGI: > 100 µM
KM12 colon
  TGI: > 100 µM
MDA-N
  TGI: > 100 µM
TK-10 renal
  TGI: 73.2 µM
UACC-62 melanoma
  TGI: > 100 µM
HCT-116 colon
  TGI: > 100 µM
RXF 393 renal
  TGI: > 100 µM
SK-MEL-5 melanoma
  TGI: 45.8 µM
MCF7 breast
  TGI: 87.6 µM
MDA-MB-435
  TGI: 87.2 µM
SF-295 CNS
  TGI: > 100 µM
IGROV1 ovarian
  TGI: > 100 µM
HL-60(TB) leukemia
  TGI: 49 µM
CCRF-CEM leukemia
  TGI: 49.8 µM
LOX IMVI melanoma
  TGI: 46.7 µM
CAKI-1 renal
  TGI: 66.3 µM
NCI/ADR-RES ovarian
  TGI: > 100 µM
OVCAR-4 ovarian
  TGI: > 100 µM
NCI-H23 lung
  TGI: > 100 µM
A549 NSCLC
  TGI: > 100 µM
MOLT-4 leukemia
  TGI: 58 µM
SF-268 CNS
  TGI: > 100 µM
HT29 colon
  TGI: > 100 µM
SK-MEL-2 melanoma
  TGI: 96.6 µM
PC-3 prostate
  TGI: > 100 µM
U251 CNS
  TGI: > 100 µM
SR leukemia
  TGI: 53.2 µM
HS 578T breast
  TGI: 99.2 µM
A498 renal
  TGI: 49.9 µM
UACC-257 melanoma
  TGI: > 100 µM
SNB-19 CNS
  TGI: > 100 µM
SN12C renal
  TGI: > 100 µM
NCI-H522 lung
  TGI: 42.3 µM
ACHN renal
  TGI: > 100 µM
M14 melanoma
  TGI: > 100 µM
EKVX NSCLC
  TGI: > 100 µM
OVCAR-5 ovarian
  TGI: > 100 µM
